Data as given in patent publication US20050182252A1, “Novel 2'-C-methyl nucleoside derivatives” (priority 2004, published 2005).
Where a name gives a salt, the structure may show the parent alone.

| melting point [°C] | SMILES |
| --- | --- |
| 180 | C[C@@]1(O)[C@H](O)[C@@H](COP2(=O)OCC[C@H](c3ccccc3Br)O2)O[C@H]1n1ccc2c(=O)[nH]c(N)nc21 (stereo partly drawn) [Compound 17.21, 2-amino-7-(cis-5′-O-[4-(2-bromophenyl)-2-oxo-1,3,2-dioxaphosphorinan-2-yl]-2′-C methyl-beta-D-ribofuranosyl)-7H-pyrrolo[2,3-d]pyrimidin-4(3H)-one] |
| 148 to 151 | CO[C@@H]1COP(=O)(OC[C@H]2O[C@@H](n3ccc4c(=O)[nH]c(N)nc43)[C@](C)(O)[C@@H]2O)O[C@@H]1c1cccc(Cl)c1 (stereo partly shown) [Compound 17.19] |
| 138 to 141 | C[C@@]1(O)[C@H](O)[C@@H](CO[P@@]2(=O)OCC[C@@H](c3ccncc3)O2)O[C@H]1n1ccc2c(=O)[nH]c(N)nc21 [Compound 17.13, 2-amino-7-(cis-5-O-[4-(S)-(pyridin-4-yl)-2-oxo-1,3,2-dioxaphosphorinan-2-yl]-2-C methyl-beta-D-ribofuranosyl)-7H-pyrrolo[2,3-d]pyrimidin-4(3H)-one] |
| 175 | C[C@@]1(O)[C@H](O)[C@@H](COP2(=O)OCC[C@H](c3ccc(Cl)cc3Cl)O2)O[C@H]1n1ccc2c(=O)[nH]c(N)nc21 (stereo partly drawn) [Compound 17.25, 2-amino-7-(cis-5-O-[4-(2,4-dichlorophenyl)-2-oxo-1,3,2-dioxaphosphorinan-2-yl]-2-C methyl-beta-D-ribofuranosyl)-7H-pyrrolo[2,3-d]pyrimidin-4(3H)-one] |

The remaining lines, values behind:

| SMILES | melting point [°C] |
| --- | --- |
| C[C@@]1(O)[C@H](O)[C@@H](COP2(=O)OC[C@H](c3ccccc3)[C@H](c3ccccc3)O2)O[C@H]1n1ccc2c(=O)[nH]c(N)nc21 (stereo partly drawn) (as salt: trifluoroacetic acid salt) [Compound 17.17, 2-amino-7-(cis-5′-[4,5-cis-diphenyl-2-oxo-1,3,2-dioxaphosphorinan-2-yl]-2-C methyl-beta-D-ribofuranosyl)-7H-pyrrolo[2,3-d]pyrimidin-4(3H)-one trifluoroacetic acid salt] | 187 to 190 |
| C[C@@]1(O)[C@H](O)[C@@H](COP2(=O)OCC[C@@H](c3ccccn3)O2)O[C@H]1n1cnc2c(N)ncnc21 (stereo partly drawn) (as salt: trifluoroacetic acid salt) [Compound 21.7, cis-5′-O-[4-(pyridin-2-yl)-2-oxo-1,3,2-dioxaphosphorinan-2-yl]-2′-C-beta-methyl-adenosine trifluoroacetic acid salt] | 118 to 120 |
| C[C@@]1(O)[C@H](O)[C@@H](COP2(=O)OCC[C@H](c3ccccc3F)O2)O[C@H]1n1ccc2c(N)ncnc21 (stereo partly drawn) [Compound 16.39, 4-amino-7-(cis-5′-O-[4-(2-fluorophenyl)-2-oxo-1,3,2-dioxaphosphorinan-2-yl]-2′-C-methyl-beta-D-ribofuranosyl)-7H-pyrrolo[2,3-d]pyrimidine] | 101 to 103 |
| CO[C@H]1COP(=O)(OC[C@H]2O[C@@H](n3ccc4c(N)ncnc43)[C@](C)(O)[C@@H]2O)O[C@@H]1c1cccc(Cl)c1 (stereo partly shown) (as salt: trifluoroacetic acid salt) [Compound 16.24] | 140 to 143 |
| C[C@@]1(O)[C@H](O)[C@@H](CO)O[C@H]1n1ccc2c(N=[N+]=[N-])ncnc21 [Compound 25.1, 4-azido-7-(2′-C-methyl-beta-D-ribofuranosyl)-7H-pyrrolo[2,3-d]pyrimidine] | 179 to 180 |
| CC(=O)O[C@@H]1[C@@H](COP2(=O)OCC[C@H](c3cccc(Cl)c3)O2)O[C@@H](n2ccc3c(N)ncnc32)[C@]1(C)O (stereo partly drawn) [Compound 22.2, 4-amino-7-(3′-acetyl-cis-5′-O-[4-(S)-(3-chlorophenyl)-2-oxo-1,3,2-dioxaphosphorinan-2-yl]-2′-C-methyl-beta-D-ribofuranosyl)-7H-pyrrolo[2,3-d]pyrimidine] | 90 to 93 |
